Results reported in PubChem BioAssay (NCI).
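Each compound was tested at five concentrations against cells in 96-well plates for 48 hours. TGI: concentration producing complete growth inhibition.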

Columns and labels:
Assay in all cases: DTP human tumour cell line panel, 48 h
COLO 205 colon = test system: COLO 205 colon
HCT-116 colon = test system: HCT-116 colon
ACHN renal = test system: ACHN renal
SK-MEL-28 melanoma = test system: SK-MEL-28 melanoma
EKVX NSCLC = test system: EKVX NSCLC
KM12 colon = test system: KM12 colon
CAKI-1 renal = test system: CAKI-1 renal
NCI-H522 lung = test system: NCI-H522 lung
DU-145 prostate = test system: DU-145 prostate
PC-3 prostate = test system: PC-3 prostate
OVCAR-5 ovarian = test system: OVCAR-5 ovarian
HT29 colon = test system: HT29 colon
SN12C renal = test system: SN12C renal
786-0 renal = test system: 786-0 renal
RXF 393 renal = test system: RXF 393 renal
MCF7 breast = test system: MCF7 breast
IGROV1 ovarian = test system: IGROV1 ovarian
SF-295 CNS = test system: SF-295 CNS
LOX IMVI melanoma = test system: LOX IMVI melanoma
MDA-N = test system: MDA-N
SF-539 CNS = test system: SF-539 CNS
MDA-MB-231 breast = test system: MDA-MB-231 breast
UACC-257 melanoma = test system: UACC-257 melanoma
HOP-92 NSCLC = test system: HOP-92 NSCLC
UO-31 renal = test system: UO-31 renal
K-562 leukemia = test system: K-562 leukemia
OVCAR-8 ovarian = test system: OVCAR-8 ovarian
A549 NSCLC = test system: A549 NSCLC
MDA-MB-435 = test system: MDA-MB-435
UACC-62 melanoma = test system: UACC-62 melanoma
HL-60(TB) leukemia = test system: HL-60(TB) leukemia
OVCAR-4 ovarian = test system: OVCAR-4 ovarian
T-47D breast = test system: T-47D breast
MALME-3M melanoma = test system: MALME-3M melanoma
NCI-H23 lung = test system: NCI-H23 lung
SK-MEL-2 melanoma = test system: SK-MEL-2 melanoma
A498 renal = test system: A498 renal
SW-620 colon = test system: SW-620 colon
NCI/ADR-RES ovarian = test system: NCI/ADR-RES ovarian
U251 CNS = test system: U251 CNS
SK-OV-3 ovarian = test system: SK-OV-3 ovarian
TK-10 renal = test system: TK-10 renal
M14 melanoma = test system: M14 melanoma
OVCAR-3 ovarian = test system: OVCAR-3 ovarian
NCI-H226 lung = test system: NCI-H226 lung
HOP-62 NSCLC = test system: HOP-62 NSCLC
BT-549 breast = test system: BT-549 breast
SNB-19 CNS = test system: SNB-19 CNS
HS 578T breast = test system: HS 578T breast
MOLT-4 leukemia = test system: MOLT-4 leukemia
SR leukemia = test system: SR leukemia
SF-268 CNS = test system: SF-268 CNS
HCT-15 colon = test system: HCT-15 colon
SK-MEL-5 melanoma = test system: SK-MEL-5 melanoma
RPMI-8226 leukemia = test system: RPMI-8226 leukemia
SNB-75 CNS = test system: SNB-75 CNS
NCI-H460 lung = test system: NCI-H460 lung
HCC-2998 colon = test system: HCC-2998 colon

O=C1N2CCc3c([nH]c4ccccc34)C23CC2CCCC12S3 (configuration not stated)
TGI (COLO 205 colon): > 50 µM
TGI (HCT-116 colon): > 50 µM
TGI (ACHN renal): > 50 µM
TGI (SK-MEL-28 melanoma): > 50 µM
TGI (EKVX NSCLC): > 50 µM
TGI (KM12 colon): > 50 µM
TGI (CAKI-1 renal): > 50 µM
TGI (NCI-H522 lung): > 50 µM
TGI (DU-145 prostate): > 50 µM
TGI (PC-3 prostate): > 50 µM
TGI (OVCAR-5 ovarian): > 50 µM
TGI (HT29 colon): > 50 µM
TGI (SN12C renal): > 50 µM
TGI (786-0 renal): > 50 µM
TGI (RXF 393 renal): > 50 µM
TGI (MCF7 breast): > 50 µM
TGI (IGROV1 ovarian): > 50 µM
TGI (SF-295 CNS): > 50 µM
TGI (LOX IMVI melanoma): > 50 µM
TGI (MDA-N): > 50 µM
TGI (SF-539 CNS): > 50 µM
TGI (MDA-MB-231 breast): > 50 µM
TGI (UACC-257 melanoma): 47.5 µM
TGI (HOP-92 NSCLC): > 50 µM
TGI (UO-31 renal): > 50 µM
TGI (K-562 leukemia): > 50 µM
TGI (OVCAR-8 ovarian): > 50 µM
TGI (A549 NSCLC): > 50 µM
TGI (MDA-MB-435): > 50 µM
TGI (UACC-62 melanoma): > 50 µM
TGI (HL-60(TB) leukemia): > 50 µM
TGI (OVCAR-4 ovarian): > 50 µM
TGI (T-47D breast): > 50 µM
TGI (MALME-3M melanoma): > 50 µM
TGI (NCI-H23 lung): > 50 µM
TGI (SK-MEL-2 melanoma): > 50 µM
TGI (A498 renal): > 50 µM
TGI (SW-620 colon): > 50 µM
TGI (NCI/ADR-RES ovarian): 43.9 µM
TGI (U251 CNS): > 50 µM
TGI (SK-OV-3 ovarian): > 50 µM
TGI (TK-10 renal): > 50 µM
TGI (M14 melanoma): > 50 µM
TGI (OVCAR-3 ovarian): > 50 µM
TGI (NCI-H226 lung): > 50 µM
TGI (HOP-62 NSCLC): > 50 µM
TGI (BT-549 breast): > 50 µM
TGI (SNB-19 CNS): > 50 µM
TGI (HS 578T breast): > 50 µM
TGI (MOLT-4 leukemia): > 50 µM
TGI (SR leukemia): > 50 µM
TGI (SF-268 CNS): > 50 µM
TGI (HCT-15 colon): > 50 µM
TGI (SK-MEL-5 melanoma): > 50 µM
TGI (RPMI-8226 leukemia): > 50 µM

Cc1ccc(Nc2nnc3n2S(=O)(=O)c2cc(C)c(Cl)cc2S3)cc1
TGI (HCT-116 colon): 67.2 µM
TGI (SNB-75 CNS): 73.4 µM
TGI (ACHN renal): > 100 µM
TGI (SK-MEL-28 melanoma): > 100 µM
TGI (EKVX NSCLC): 87.4 µM
TGI (KM12 colon): > 100 µM
TGI (CAKI-1 renal): 66.1 µM
TGI (NCI-H522 lung): 5.66 µM
TGI (DU-145 prostate): > 100 µM
TGI (PC-3 prostate): 27.3 µM
TGI (OVCAR-5 ovarian): 74.8 µM
TGI (HT29 colon): 38.5 µM
TGI (NCI-H460 lung): > 100 µM
TGI (786-0 renal): 35.5 µM
TGI (RXF 393 renal): 49.1 µM
TGI (MCF7 breast): > 100 µM
TGI (IGROV1 ovarian): > 100 µM
TGI (SF-295 CNS): 25.7 µM
TGI (LOX IMVI melanoma): 65.2 µM
TGI (MDA-N): 4.33 µM
TGI (SF-539 CNS): 14.7 µM
TGI (MDA-MB-231 breast): 82.4 µM
TGI (UACC-257 melanoma): > 100 µM
TGI (HOP-92 NSCLC): 83.1 µM
TGI (UO-31 renal): 81.3 µM
TGI (K-562 leukemia): 23.8 µM
TGI (OVCAR-8 ovarian): 33.1 µM
TGI (A549 NSCLC): 61.6 µM
TGI (MDA-MB-435): 70.4 µM
TGI (HL-60(TB) leukemia): 9.33 µM
TGI (OVCAR-4 ovarian): > 100 µM
TGI (HCC-2998 colon): 55.8 µM
TGI (T-47D breast): > 100 µM
TGI (NCI-H23 lung): 48.3 µM
TGI (SK-MEL-2 melanoma): 67.1 µM
TGI (A498 renal): 89.2 µM
TGI (SW-620 colon): > 100 µM
TGI (NCI/ADR-RES ovarian): 43.5 µM
TGI (U251 CNS): 59.2 µM
TGI (TK-10 renal): > 100 µM
TGI (M14 melanoma): 47.4 µM
TGI (OVCAR-3 ovarian): 4.63 µM
TGI (NCI-H226 lung): 37.4 µM
TGI (HOP-62 NSCLC): 51.8 µM
TGI (BT-549 breast): 31.3 µM
TGI (HS 578T breast): 8.67 µM
TGI (MOLT-4 leukemia): 32.7 µM
TGI (SR leukemia): 7.85 µM
TGI (SF-268 CNS): 18.4 µM
TGI (HCT-15 colon): 51.3 µM
TGI (SK-MEL-5 melanoma): 29.6 µM
TGI (RPMI-8226 leukemia): 54.9 µM
